According to the supplement of paper PMC11208160:

Test: recombinant UMI read abundance after kanamycin selection (control-corrected) (log10(CPM+1)); higher = more efficient recombination; extreme values may be limits of the assay; sequences stand for … in AGTGCAGAGAAAATCGGCCAGTTTTCTCTGCCTGCAGTCCGCATGCCGTGGGACCCCTTGGGTTCTAACCTGTTGCCTAGATTTATGCAGCGGACTGCCTTTCTCCCAAAGTGATAAACCGG…AGGTTGGTTTCACT; site = the 11-nt donor
How it was run: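 Counts of recombinant UMIs were reported as log10(CPM+1). Before that, they were converted to CPM, averaged over replicates and scaled using control-derived factors. They came from PCR across the donor–target junction after Escherichia coli carrying the pair library and target plasmid was plated on IPTG (0.07 mM) plus kanamycin, or unselected, in two replicates each.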
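Also: IS621 bridge recombinase in Escherichia coli cells against a fixed T5 target plasmid.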

| Sequence | recombinant UMI read abundance (log10) |
| --- | --- |
| CGATCATCATGGACCGGTTTTCCCGGTAATCCGTATTTGGT (site CGATCATCTAA) | 0.00543 |
| CGATCATCATGGACCGGTTTTCCCGGTAATCCGTATTTGGT (site CGATCATCTAC) | 1.58 |
| CGATCATCATGGACCGGTTTTCCCGGTAATCCGTATTTGGT (site CGATCATCTAG) | 0.495 |
| CGATCATCATGGACCGGTTTTCCCGGTAATCCGTATTTGGT (site CGATCATCTAT) | 1.08 |
| CGATCGACATGGACCGGTTTTCCCGGTAATCCGTATTTGCT (site CGATCGACTAA) | 0.3 |
| CGATCGACATGGACCGGTTTTCCCGGTAATCCGTATTTGCT (site CGATCGACTAC) | 0.00923 |
| CGATCGACATGGACCGGTTTTCCCGGTAATCCGTATTTGCT (site CGATCGACTAG) | 2.63 |
| CGATCGACATGGACCGGTTTTCCCGGTAATCCGTATTTGCT (site CGATCGACTAT) | 0.0395 |
| CGATCGACATGGACCGGTTTTCCCGGTAATCCGTATTTGTC (site CGATCGACTAA) | 0.00466 |
| CGATCGACATGGACCGGTTTTCCCGGTAATCCGTATTTGTC (site CGATCGACTCA) | 0 |
| CGATCGACATGGACCGGTTTTCCCGGTAATCCGTATTTGTC (site CGATCGACTGA) | 1.08 |
| CGATCGACATGGACCGGTTTTCCCGGTAATCCGTATTTGTC (site CGATCGACTTA) | 0 |
| CGATCGGCATGGACCGGTTTTCCCGGTAATCCGTATTTGAA (site CGATCGGCTTT) | 1.25 |
| CGATCGTCATGGACCGGTTTTCCCGGTAATCCGTATTTGTT (site CGATCGACTAA) | 0.00634 |
| CGATCGTCATGGACCGGTTTTCCCGGTAATCCGTATTTGTT (site CGATCGCCTAA) | 0.0131 |
| CGATCGTCATGGACCGGTTTTCCCGGTAATCCGTATTTGTT (site CGATCGGCTAA) | 0.0205 |
| CGATCGTCATGGACCGGTTTTCCCGGTAATCCGTATTTGTT (site CGATCGTCTAA) | 1.25 |
| CGATCTCCATGGACCGGTTTTCCCGGTAATCCGTATTTGCT (site CGATCTCCTAG) | 0 |
| CGATCTTCATGGACCGGTTTTCCCGGTAATCCGTATTTGTT (site CGATCATCTAG) | 0 |
| CGATCTTCATGGACCGGTTTTCCCGGTAATCCGTATTTGTT (site CGATCTTCTAA) | 0.751 |
| CGATGATCATGGACCGGTTTTCCCGGTAATCCGTATTTGCT (site CGATAATCTAG) | 2.33 |
| CGATGATCATGGACCGGTTTTCCCGGTAATCCGTATTTGCT (site CGATCATCTAG) | 0.00821 |
| CGATGATCATGGACCGGTTTTCCCGGTAATCCGTATTTGCT (site CGATGATCTAG) | 2.46 |

| Sequence | recombinant UMI read abundance (log10) |
| --- | --- |
| CGATGATCATGGACCGGTTTTCCCGGTAATCCGTATTTGCT (site CGATTATCTAG) | 0.958 |
| CGATGGACATGGACCGGTTTTCCCGGTAATCCGTATTTGTT (site CGATAGACTAA) | 1.25 |
| CGATGGACATGGACCGGTTTTCCCGGTAATCCGTATTTGTT (site CGATCGACTAA) | 0.00844 |
| CGATGGACATGGACCGGTTTTCCCGGTAATCCGTATTTGTT (site CGATGGACTAA) | 1.97 |
| CGATGGACATGGACCGGTTTTCCCGGTAATCCGTATTTGTT (site CGATTGACTAA) | 0.00606 |
| CGATGGTCATGGACCGGTTTTCCCGGTAATCCGTATTTGCT (site CGATCATCTAG) | 0 |
| CGATGGTCATGGACCGGTTTTCCCGGTAATCCGTATTTGCT (site CGATGGTCTAG) | 2.8 |
| CGATTGGCATGGACCGGTTTTCCCGGTAATCCGTATTTGCA (site CGATTGGCTTG) | 2.02 |
| CGCAATCCATGGACCGGTTTTCCCGGTAATCCGTATTTGTG (site CGCAATCCTCA) | 0.631 |
| CGCAATCCATGGACCGGTTTTCCCGGTAATCCGTATTTGTG (site CGGAATCCTAA) | 0 |
| CGCAATGCATGGACCGGTTTTCCCGGTAATCCGTATTTGTT (site CGCAATGCTAA) | 2.14 |
| CGCAATGCATGGACCGGTTTTCCCGGTAATCCGTATTTGTT (site CGGAATCCTAA) | 0 |
| CGCAGCACATGGACCGGTTTTCCCGGTAATCCGTATTTGAC (site CGCAGCACTGT) | 2.95 |
| CGCAGGCCATGGACCGGTTTTCCCGGTAATCCGTATTTGGG (site CGCAGGCCTCC) | 0 |
| CGCAGTACATGGACCGGTTTTCCCGGTAATCCGTATTTGCG (site CGCAGTACTCG) | 0.962 |
| CGCATACCATGGACCGGTTTTCCCGGTAATCCGTATTTGAC (site CGCATACCTGT) | 0 |
| CGCATAGCATGGACCGGTTTTCCCGGTAATCCGTATTTGTA (site CGCATAGCTTA) | 2.51 |
| CGCATTACATGGACCGGTTTTCCCGGTAATCCGTATTTGGC (site CGCATTACTGC) | 1.28 |
| CGCCCGGCATGGACCGGTTTTCCCGGTAATCCGTATTTGGT (site CGCCCGGCTAC) | 1.31 |
| CGCCCTCCATGGACCGGTTTTCCCGGTAATCCGTATTTGTT (site CGCCCTCCTAA) | 1.24 |
| CGCCGAACATGGACCGGTTTTCCCGGTAATCCGTATTTGCT (site CGCCGAACTAG) | 2.15 |
| CGCCGAACATGGACCGGTTTTCCCGGTAATCCGTATTTGCT (site CGCCGCACTAG) | 0.0174 |
| CGCCGAACATGGACCGGTTTTCCCGGTAATCCGTATTTGCT (site CGCCGGACTAG) | 0.95 |

| Sequence | recombinant UMI read abundance (log10) |
| --- | --- |
| CGCCGAACATGGACCGGTTTTCCCGGTAATCCGTATTTGCT (site CGCCGTACTAG) | 0.00823 |
| CGCCGGGCATGGACCGGTTTTCCCGGTAATCCGTATTTGAC (site CGCCGGGCTGT) | 1.46 |
| CGCCGTACATGGACCGGTTTTCCCGGTAATCCGTATTTGAT (site CGCCGTACTAA) | 0.00486 |
| CGCCGTACATGGACCGGTTTTCCCGGTAATCCGTATTTGAT (site CGCCGTACTAC) | 0.0168 |
| CGCCGTACATGGACCGGTTTTCCCGGTAATCCGTATTTGAT (site CGCCGTACTAG) | 0 |
| CGCCGTACATGGACCGGTTTTCCCGGTAATCCGTATTTGAT (site CGCCGTACTAT) | 1.37 |
| CGCCGTACATGGACCGGTTTTCCCGGTAATCCGTATTTGCC (site CGCCGTACTAG) | 0.256 |
| CGCCGTACATGGACCGGTTTTCCCGGTAATCCGTATTTGCC (site CGCCGTACTCG) | 0.114 |
| CGCCGTACATGGACCGGTTTTCCCGGTAATCCGTATTTGCC (site CGCCGTACTGG) | 1.55 |
| CGCCGTACATGGACCGGTTTTCCCGGTAATCCGTATTTGCC (site CGCCGTACTTG) | 0.384 |
| CGCCGTCCATGGACCGGTTTTCCCGGTAATCCGTATTTGCT (site CGCCGTACTAG) | 0.0123 |
| CGCCGTCCATGGACCGGTTTTCCCGGTAATCCGTATTTGCT (site CGCCGTCCTAG) | 0.666 |
| CGCCGTCCATGGACCGGTTTTCCCGGTAATCCGTATTTGCT (site CGCCGTGCTAG) | 0 |
| CGCCGTCCATGGACCGGTTTTCCCGGTAATCCGTATTTGCT (site CGCCGTTCTAG) | 0.012 |
| CGCCTAGCATGGACCGGTTTTCCCGGTAATCCGTATTTGTC (site TTGAATACTAG) | 0 |
| CGCCTATCATGGACCGGTTTTCCCGGTAATCCGTATTTGGC (site CGCCTATCTGC) | 1.93 |
| CGCCTTACATGGACCGGTTTTCCCGGTAATCCGTATTTGCT (site CGCCATACTAG) | 0.00361 |
| CGCCTTACATGGACCGGTTTTCCCGGTAATCCGTATTTGCT (site CGCCCTACTAG) | 0.675 |
| CGCCTTACATGGACCGGTTTTCCCGGTAATCCGTATTTGCT (site CGCCGTACTAG) | 0 |
| CGCCTTACATGGACCGGTTTTCCCGGTAATCCGTATTTGCT (site CGCCTTACTAG) | 1.57 |
| CGCCTTTCATGGACCGGTTTTCCCGGTAATCCGTATTTGAC (site AGCCTTTCTGT) | 0 |
| CGCCTTTCATGGACCGGTTTTCCCGGTAATCCGTATTTGAC (site CGCCTTTCTGT) | 0 |
